Key:
[1] = biological target: muscarinic acetylcholine receptors; test: inhibition of specific binding of 3H-Oxotremorine-M (3H-Oxo) to rat cortical receptors; conditions: 3H-Oxo 1.0 nM, 25° C., 30 min
Source text: Furthermore, the pharmacological properties of the compounds of the invention can also be illustrated by determining their capability to inhibit the specific binding of ^3 H-Oxotremorine--M (^3 H-Oxo). Birdsdall N.J.M., Hulme E.C., and Burgen A.S.V. (1980). "The Character of Muscarinic Receptors in Different Regions of the Rat Brain". Proc. Roy. Soc. London (Series B) 207,1.
^3 H-Oxo labels muscarinic receptor in the CNS (with a preference for agonist domains of the receptors). Three different sites are labelled by ^3 H-Oxo. […] Using the present experimental conditions only the high and medium affinity sites are determined.
The inhibitory effects of compounds on ^3 H--Oxo binding reflects the affinity for muscarinic acetylcholine receptors.
All preparations are performed at 0-4° C. unless otherwise indicated. […]
The final pellet is homogenized in 20 mM Hepes pH: 7.4 (100 ml per g of original tissue) and used for binding assay. […] Non-specific binding is determined in triplicate using arecoline (1 ug/ml, final concentration) as the test substance. […] The amount of radioactivity on the filters are determined by conventional liquid scintillation counting. […]
Table I illustrates the affinity of the compounds of the present invention for nicotinic and muscarinic receptors as determined by ^3 H-MCC and ^3 H-Oxo binding to rat cortical receptors. […]

[2] = biological target: T1, nicotinic acetylcholine receptors (Rattus norvegicus, UniProt P09483+P12390); test: inhibition of specific binding of 3H-methylcarbamylcholine (3H-MCC) to rat cortical receptors; conditions: for IC50: rat cortical receptors, 3H-MCC 2 nM, 0° C., 60 min; for Oxo/MCC Ratio: selectivity for nicotinic (3H-MCC) over muscarinic (3H-Oxo) receptors, rat cortex
T1 construct: Fresh or frozen rat, brain tissue (hippocampus or cortex) was homogenized in assay buffer; from tissue; host or cells: rat brain tissue (hippocampus or cortex)
T1 sequence (P09483 31-630): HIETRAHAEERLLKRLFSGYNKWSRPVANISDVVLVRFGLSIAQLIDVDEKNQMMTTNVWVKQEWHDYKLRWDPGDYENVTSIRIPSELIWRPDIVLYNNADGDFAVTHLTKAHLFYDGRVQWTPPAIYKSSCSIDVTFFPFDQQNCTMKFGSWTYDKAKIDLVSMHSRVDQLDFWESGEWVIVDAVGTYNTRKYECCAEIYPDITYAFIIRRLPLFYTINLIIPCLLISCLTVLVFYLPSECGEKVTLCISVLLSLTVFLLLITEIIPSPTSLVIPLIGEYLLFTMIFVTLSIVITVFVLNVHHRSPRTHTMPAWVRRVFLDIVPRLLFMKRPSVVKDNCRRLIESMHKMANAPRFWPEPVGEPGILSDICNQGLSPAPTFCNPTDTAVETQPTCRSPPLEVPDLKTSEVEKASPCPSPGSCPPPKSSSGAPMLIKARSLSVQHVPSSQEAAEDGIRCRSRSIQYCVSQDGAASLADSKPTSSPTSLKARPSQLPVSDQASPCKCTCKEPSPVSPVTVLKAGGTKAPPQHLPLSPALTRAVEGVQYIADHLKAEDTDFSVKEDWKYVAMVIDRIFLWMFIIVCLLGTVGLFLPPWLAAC
T1 sequence (P12390 25-500): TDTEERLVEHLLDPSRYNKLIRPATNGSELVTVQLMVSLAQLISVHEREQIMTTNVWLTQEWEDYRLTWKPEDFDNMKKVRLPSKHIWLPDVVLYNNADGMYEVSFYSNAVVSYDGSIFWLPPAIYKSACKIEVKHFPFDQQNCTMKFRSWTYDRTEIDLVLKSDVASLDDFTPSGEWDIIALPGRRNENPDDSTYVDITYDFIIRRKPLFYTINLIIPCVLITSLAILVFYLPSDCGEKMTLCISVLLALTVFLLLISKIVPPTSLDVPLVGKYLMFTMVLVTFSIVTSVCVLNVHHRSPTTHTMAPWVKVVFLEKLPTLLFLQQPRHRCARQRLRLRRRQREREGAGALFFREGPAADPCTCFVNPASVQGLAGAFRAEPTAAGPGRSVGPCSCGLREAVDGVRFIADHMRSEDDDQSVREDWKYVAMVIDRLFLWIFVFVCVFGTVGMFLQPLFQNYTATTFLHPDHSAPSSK
Source text: The pharmacological properties of the compounds of the invention can be illustrated by determining their capability to inhibit the specific binding of ^3 H-methylcarbamylcholine (^3 H-MCC) (Abood and Grassi, Biochem. Pharmacol., Vol. 35, pp. 4199-4202, (1986)).
^3 H-MCC labels the nicotinic receptors in the CNS. The inhibitory effect on ^3 H-MCC binding reflects the affinity for nicotinic acetylcholine receptors.
Fresh or frozen rat, brain tissue (hippocampus or cortex) was homogenized in assay buffer (5OmM Tris--HCI, pH 7.4, 120 mM NaCI, 5 mM KCI, 2 mM CaCI21 1mM MgCI2) and centrifuged for 10 min. at 40.000×g.Pellets were subsequently reconstituted in assay buffer and an appropriate amount of tissue sample was mixed in tubes with ^3 H--methylcarbamylcholine (NEN, NET--951; final concentration 2 nM) and test drug. The tubes were incubated at 0° C. for 60 min. Unbound ligand was separated from bound ligand by vacuum filtration through GF/B filters presoaked in 0.5 % polyethylenimine. Filters were washed three times with 5 ml wash buffer (50mM Tris--HCI, pH 7.4) and transferred to vials. 4 ml scintillation fluid was added and the radioactivity was measured by scintillation counting. Unspecific binding was measured with 10 μM nicotine.
The IC50 values of the test compounds were determined by nonlinear regression analyses (GraphPad InPlot).
Table I illustrates the affinity of the compounds of the present invention for nicotinic and muscarinic receptors as determined by ^3 H-MCC and ^3 H-Oxo binding to rat cortical receptors. The compounds, however, show selective affinity for nicotinic receptors as compared to muscarinic receptors, i.e OXO/MCC >1.

[3] = in vivo; cited from earlier work
[4] = test system: dopaminergic effects in various behavioral models; conditions: cited from earlier work
substantia nigra = conditions: chronic nicotine; cited from earlier work
[5] = test system: dopamine release in the nucleus accumbens; conditions: cited from earlier work

| SMILES | IC50 [1] [µM] | IC50 [2] [µM] | Oxo/MCC Ratio [2] | effect in Tourette's syndrome [3] | potentiation of dopaminergic effects [4] | protection against cell loss in the substantia nigra caused by lesioning (substantia nigra) | stimulation of dopamine release, nucleus accumbens versus striatum [5] |
| --- | --- | --- | --- | --- | --- | --- | --- |
| Cc1cc(/C=C2/CCCN(C)C2)on1.O=C(O)C(=O)O [Compound 1, (Z)-3-(3-Methyl-5-isoxazolyl)methylene-1-methylpiperidine oxalate] | 5.15 | 3.05 | 1.7 |  |  |  |  |
| Cc1cc(/C=C2/CCCNC2)on1.Cl [Compound 5, (Z)-3-(3-Methyl-5-isoxazolyl)methylenepiperidine hydrochloride] | 10 | 0.1 | 100 |  |  |  |  |
| CN1CCCC1c1cccnc1 (stereo not shown) [nicotine] |  |  |  | beneficial effects in Tourette's syndrome | will potentiate dopaminergic effects in various behavioral models | may protect against cell loss in the substantia nigra caused by lesioning | stimulates dopamine release in the nucleus accumbens more potently than in striatum |
